Assay results: the NIST ThermoML archive (doi:10.1021/je020178w)

Tests used:
[1] = 308.15 K, 101.3 kPa, Liquid; for viscosity: Capillary tube (Ostwald / Ubbelohde) method
[2] = xn = mol fraction of the nth substance listed; conditions: 308.15 K, 101.3 kPa, Liquid; for viscosity: Capillary tube (Ostwald / Ubbelohde) method

OCCO [1,2-ethanediol]
Conditions	viscosity [mPa·s]
[1]	10.59

CNC(C)=O [N-methylacetamide]
[1]
Conditions	mass density [kg/m3]	viscosity [mPa·s]
–	958.9	3.67

CNC(C)=O [N-methylacetamide] + OCCO
[2]
Conditions	mass density [kg/m3]
x1 = 0.0847	1089.5
x1 = 0.212	1068.3
x1 = 0.3298	1049.4
x1 = 0.4247	1034.9
x1 = 0.5255	1020.5
x1 = 0.6275	1006.3
x1 = 0.7471	990.5
x1 = 0.8412	978.6
x1 = 0.9347	967.3
x1 = 1	958.9

CNC(C)=O [N-methylacetamide] + OCCOCCO
[2]
Conditions	mass density [kg/m3]	viscosity [mPa·s]
x1 = 0.1121	1094.4	16.13
x1 = 0.2394	1079.9	14.47
x1 = 0.3419	1067.4	13.11
x1 = 0.4564	1052.2	11.57
x1 = 0.5574	1037.8	10.17
x1 = 0.6538	1023.2	8.8
x1 = 0.7649	1005.3	7.2
x1 = 0.8343	993	6.16
x1 = 0.9252	975.2	4.8
x1 = 1	958.9	3.67

CNC(C)=O [N-methylacetamide] + OCCOCCOCCO
[2]
Conditions	mass density [kg/m3]	viscosity [mPa·s]
x1 = 0.1142	1103.7	21.93
x1 = 0.2059	1095.7	20.39
x1 = 0.3069	1085.6	18.59
x1 = 0.4265	1071.8	16.35
x1 = 0.5415	1056.3	14.01
x1 = 0.6392	1041	11.91
x1 = 0.7266	1025.3	9.98
x1 = 0.8278	1004.5	7.74
x1 = 0.9307	979.5	5.3
x1 = 1	958.9	3.67

OCCOCCO [diethylene glycol]
[1]
Conditions	mass density [kg/m3]	viscosity [mPa·s]
–	1105.6	17.59

OCCOCCO [diethylene glycol] + CNC(C)=O
[2], x2 = 0
Conditions	mass density [kg/m3]	viscosity [mPa·s]
–	1105.6	17.59

OCCOCCOCCO [triethylene glycol]
[1]
Conditions	mass density [kg/m3]	viscosity [mPa·s]
–	1112.1	23.84

OCCOCCOCCO [triethylene glycol] + CNC(C)=O
[2], x2 = 0
Conditions	mass density [kg/m3]	viscosity [mPa·s]
–	1112.1	23.84
